Measurements: PubChem BioAssay (NCI)
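Cells were grown in 96-well plates and exposed to each compound for 48 hours at five concentrations; endpoints were interpolated linearly between bracketing concentrations, or set to the highest concentration if not reached. GI50 marks 50% less growth. TGI denotes the concentration required for complete inhibition of growth.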

Experiments:
Assay in all cases: NCI tumour cell line growth inhibition, 48 h
COLO 205 colon = system: COLO 205 colon
HCT-15 colon = system: HCT-15 colon
IGROV1 ovarian = system: IGROV1 ovarian
MDA-MB-435 = system: MDA-MB-435
RPMI-8226 leukemia = system: RPMI-8226 leukemia
SK-OV-3 ovarian = system: SK-OV-3 ovarian
SNB-19 CNS = system: SNB-19 CNS
UO-31 renal = system: UO-31 renal

Row | Structure (SMILES) | GI50 (COLO 205 colon) | TGI (COLO 205 colon) | GI50 (HCT-15 colon) | TGI (HCT-15 colon) | GI50 (IGROV1 ovarian) | TGI (IGROV1 ovarian) | GI50 (MDA-MB-435) | TGI (MDA-MB-435) | GI50 (RPMI-8226 leukemia) | TGI (RPMI-8226 leukemia) | GI50 (SK-OV-3 ovarian) | TGI (SK-OV-3 ovarian) | GI50 (SNB-19 CNS) | TGI (SNB-19 CNS) | GI50 (UO-31 renal) | TGI (UO-31 renal)
1 | C[C@]12CC[C@@H](OC(=O)N(CCCl)N=O)C[C@@H]1CC[C@@H]1[C@@H]2CC[C@]2(C)C(=O)CC[C@@H]12 | 1600 nM | 3.88 µM | 12100 nM | 32.4 µM | 3750 nM | 24 µM | 10600 nM | 44.1 µM | 14800 nM | > 50.8 µM | 3430 nM | 14.3 µM | 526 nM | 26 µM | 4220 nM | 18.1 µM
2 | C/C(=C(/c1ccc(O)cc1)c1ccc(Cl)cc1)c1ccccc1 | 2440 nM | 5.96 µM | 639 nM | 2.06 µM | 671 nM | 2.22 µM | 534 nM | 1.18 µM | 583 nM | 1.69 µM | 1040 nM | 3.76 µM | 760 nM | 2.18 µM | 509 nM | 1.57 µM
3 | [N-]=[N+]=CC(=O)COC(=O)c1ccccc1 | – | > 100 µM | – | > 100 µM | – | > 100 µM | – | > 100 µM | – | > 100 µM | – | > 100 µM | – | > 100 µM | – | > 100 µM
4 | Nc1ccc(C(=O)CC2(O)C(=O)Nc3c(Cl)cc(Cl)cc32)cc1 (configuration not stated) | – | > 100 µM | – | > 100 µM | – | – | – | – | – | > 100 µM | – | > 100 µM | – | > 100 µM | – | > 100 µM
5 | NC(=S)N/N=C1\CCCC1C(O)(C(F)(F)Cl)C(F)(F)Cl (configuration not stated) | – | > 10 µM | – | > 10 µM | – | > 10 µM | – | > 10 µM | – | > 10 µM | – | > 10 µM | – | > 10 µM | – | –
6 | Cc1ccc(/C=C2/NC(=S)SC2=O)cc1 | – | > 100 µM | – | 85.6 µM | – | > 100 µM | – | > 100 µM | – | – | – | > 100 µM | – | > 100 µM | – | 93.1 µM
7 | Cn1cc(C2=C(c3cn(C)c4cc(N)ccc34)C(=O)NC2=O)c2ccccc21 | 1630 nM | 9.59 µM | 1040 nM | > 21.6 µM | 6050 nM | 17.6 µM | 112 nM | > 21.2 µM | 2920 nM | 11.6 µM | 2250 nM | > 25 µM | 5450 nM | 24.3 µM | 2540 nM | 15.4 µM
8 | CC(=O)Nc1ccc(/C=C2/NC(=S)N(/C=C3\C(=O)Oc4ccccc4C3=O)C2=O)cc1 | – | > 100 µM | – | > 100 µM | – | > 100 µM | – | > 100 µM | – | > 100 µM | – | > 100 µM | – | > 100 µM | – | > 100 µM
9 | CC[C@H](Nc1nc(N)nc(C2CC2)c1C#N)c1nc2cccc(NCc3ccc(C(=O)NO)cc3)c2c(=O)n1-c1ccccc1 | 2240 nM | 5.75 µM | 2050 nM | 6.96 µM | – | – | – | – | 2520 nM | 9.03 µM | 1900 nM | 4.38 µM | 2180 nM | 6.94 µM | 1260 nM | 2.59 µM
10 | CC(C)(C)n1cc(-c2ccnc(NCCCNS(=O)(=O)c3ccc(Br)cc3)c2)c(-c2cccc(O)c2)n1 | 1850 nM | 3.79 µM | 1480 nM | 3.17 µM | 1910 nM | 3.93 µM | 1820 nM | 3.29 µM | – | – | 2530 nM | 6.26 µM | 2110 nM | 4.37 µM | 1660 nM | 3.89 µM
11 | Nc1nc(N)nc(CC(=O)O)n1 | – | > 100 µM | – | > 100 µM | – | > 100 µM | – | > 100 µM | – | > 100 µM | – | > 100 µM | – | > 100 µM | – | > 100 µM
12 | CC[C@@]12C=CCN3CC[C@]4(c5cc(NC(=O)COc6cc(OCC(=O)Nc7cc8c(cc7OC)N(C)[C@H]7[C@@](O)(C(=O)OC)[C@H](OC(C)=O)[C@]9(CC)C=CCN%10CC[C@]87[C@@H]%109)cc7oc(-c8ccccc8)cc(=O)c67)c(OC)cc5N(C)[C@@H]4[C@](O)(C(=O)OC)[C@H]1OC(C)=O)[C@H]32 | 3880 nM | 27.3 µM | 1700 nM | 12.1 µM | 1320 nM | 3.63 µM | 17700 nM | > 100 µM | 3200 nM | > 100 µM | 6490 nM | 19.7 µM | 5710 nM | > 100 µM | > 100000 nM | > 100 µM
13 | NNS(=O)(=O)c1cc(C(=O)O)cc(C(=O)O)c1 | – | > 100 µM | – | > 100 µM | – | > 100 µM | – | > 100 µM | – | > 100 µM | – | > 100 µM | – | > 100 µM | – | > 100 µM
14 | CC[C@]1(O)C[C@@H]2CN(CCc3c([nH]c4ccccc34)[C@@](C(=O)OC)(c3cc4c(cc3OC)N(C)[C@H]3[C@@](O)(C(N)=O)[C@H](O)[C@]5(CC)[C@@H]6C[C@@H]6CN6CC[C@]43[C@@H]65)C2)C1 | < 3.33 nM | 0.00878 µM | 148 nM | > 21.4 µM | 17.2 nM | > 33.3 µM | < 3.33 nM | < 0.00333 µM | < 3.33 nM | > 28.7 µM | < 3.33 nM | > 33.3 µM | < 3.33 nM | > 33.3 µM | 548 nM | > 33.3 µM
15 | CCOC(=O)c1c2c(n(Cc3ccccc3)c1C)-c1nc(Cc3ccccc3)[nH]c1C(=O)C2=O | 1830 nM | 3.33 µM | 1590 nM | 2.94 µM | 1240 nM | 2.68 µM | – | – | 1780 nM | 4.93 µM | 2310 nM | 5.19 µM | 1720 nM | 3.09 µM | 1320 nM | 2.64 µM
16 | CC(=O)c1cccc(-c2cccc(-c3ccn(CCN4CCOCC4)n3)c2)c1 | > 20000 nM | > 20 µM | > 20000 nM | > 20 µM | > 20000 nM | > 20 µM | > 20000 nM | > 20 µM | > 20000 nM | > 20 µM | > 20000 nM | > 20 µM | – | – | > 20000 nM | > 20 µM
17 | COc1cc2c3c(c1OC)C1(C=CC(=O)C=C1)CC3NCC2 (configuration not stated) | – | > 100 µM | – | > 100 µM | – | > 100 µM | – | > 100 µM | – | > 100 µM | – | > 100 µM | – | > 100 µM | – | –
18 | C[C@]12CC[C@H]3[C@@H](CC[C@]4(O)C[C@@H](O)CC[C@]34CO)[C@@]1(O)CC[C@@H]2C1=CC(=O)OC1 | – | 29.7 µM | – | 4.72 µM | – | > 100 µM | – | 9.45 µM | – | 6.83 µM | – | 6.72 µM | – | 23.6 µM | – | –
19 | CCn1c(=O)c2c3ccc(OC(C)=O)cc3[nH]c2c2ccc(OC(C)=O)cc21 | – | > 100 µM | – | > 100 µM | – | > 100 µM | – | > 100 µM | – | – | – | > 100 µM | – | > 100 µM | – | > 100 µM
20 | CN(C)CCCc1c2ccccc2nc2ccc(Cl)cc12 | – | 29.8 µM | – | 93.7 µM | – | 31 µM | – | 26.6 µM | – | 96.2 µM | – | 41.7 µM | – | 33.5 µM | – | –
21 | Cc1ccc2sc3ccc(N)cc3c(=O)c2c1 | – | > 100 µM | – | > 100 µM | – | > 100 µM | – | > 100 µM | – | – | – | > 100 µM | – | > 100 µM | – | > 100 µM
22 | COc1cc2c3c(ncc2c(OC)c1OC)-c1cc2c(cc1C3)OCO2 | > 100000 nM | > 100 µM | 32600 nM | > 100 µM | – | – | > 100000 nM | > 100 µM | 33400 nM | > 100 µM | 21600 nM | 61.4 µM | 26100 nM | 55.6 µM | 19800 nM | 68 µM
23 | CNCCNc1nc2ccccc2c2c(=O)c3cc(F)ccc3sc12 | 1670 nM | 3.36 µM | 1650 nM | 3.26 µM | 1750 nM | 3.34 µM | 1710 nM | 3.22 µM | 1910 nM | 4.03 µM | 2130 nM | 7.58 µM | – | – | 1390 nM | 2.81 µM
24 | COC(=O)c1cc(-c2ccc(OC)cc2)[nH]c1N/N=C/c1c(Cl)cccc1Cl | 846 nM | 2.93 µM | 204 nM | 1.49 µM | – | – | – | – | 187 nM | 0.575 µM | 188 nM | 2.19 µM | 358 nM | 11.5 µM | 287 nM | 2.55 µM
25 | CCCCCCNC(=O)n1cc(F)c(=O)[nH]c1=O | 2090 nM | 18.4 µM | 4260 nM | 28.7 µM | – | – | 1210 nM | 24.2 µM | 2380 nM | 32.2 µM | 11100 nM | 91.1 µM | 7480 nM | 56.3 µM | – | –
26 | COC(=O)C(=O)C(C(=O)C(N)=O)c1nc2ccc(C(=O)c3ccccc3)cc2[nH]c1=O (configuration not stated) | – | – | – | > 100 µM | – | > 100 µM | – | > 100 µM | – | > 100 µM | – | > 100 µM | – | – | – | –
27 | COC(=O)[C@@]1(C)CCC[C@]2(C(=O)O)C3Cc4occc4[C@H](C)[C@@H]3CCC21 (some centres not stated) | – | – | – | – | – | > 100 µM | – | > 100 µM | – | – | – | > 100 µM | – | > 100 µM | – | > 100 µM
28 | COc1cc(/C=C2\CC3C4CC=C5C[C@@H](O)CC[C@]5(C)C4CC[C@]3(C)C2=O)ccc1OCCCn1ccnc1 (some centres not stated) | 26400 nM | > 100 µM | 10200 nM | 31.3 µM | 23700 nM | 52.8 µM | 16800 nM | 34 µM | – | – | 29100 nM | > 100 µM | 38800 nM | > 100 µM | 19600 nM | 55.2 µM
